# Measurements: patent US12038447B2 (priority 2017, dated 2024)
# Where two headings read alike, the source gives them in different places.
# How the values were obtained:
# [1] = target: HA; conditions: cited from earlier work
# [2] = system: human serum albumin (HSA) and lysozyme (LYZ); assay: Protein resistance of E0-6 rSAMs on MHA gold, IRAS amide I and ellipsometry; type: binding; conditions: HSA or LYZ 1 mg/mL, pH 8, rSAM on MHA gold
# [3] = system: MC3T3-E1 cells; assay: Cell attachment and detachment on GRGDS functionalized rSAMs; conditions: for reduction in average projected cell area on MDSA versus MBA-SAMs: absence of GRGDS 3 in the layer; for average projected cell area: 5 hours
# [4] = Fluorescence recovery after photobleaching (FRAP), lateral fluidity; type: physicochemical; conditions: 1 mol % FAM tagged amidine in E2 on COOH quartz
# [5] = pH titration of rinsed rSAM layers, ellipsometric thickness; type: physicochemical; conditions: on MBA SAMs
# [6] = Air and rinse stability of rSAMs, rinsing and drying cycles; type: physicochemical; conditions: rSAM on MHA-gold
# [7] = Water solubility (qualitative); type: physicochemical
# [8] = Critical micelle concentration from assembly kinetics, in situ ellipsometry; type: physicochemical; conditions: pH 9 buffer
# [9] = system: Influenza A H5N1 (A/Anhui/2005) hemagglutinin (HA); type: binding
# [10] = system: deactivated influenza virus H5N1; type: binding, Influenza A Virus, A/Anhui/01/2005(H5N1)
# [11] = 100 μM added to cells on XGRGDS3,filler2=0.25 on MBA SAMs, 30 minutes
molecule,measurement,setting,value
CO[C@]1(C(=O)O)C[C@H](O)[C@@H](NC(C)=O)[C@H]([C@H](O)[C@H](O)CO)O1 [α-methyl sialoside],Kd,[1]; read-out: Kd per SA or HA monomer unit,2000 µM
"N=C(N)c1ccc(OCCCCCCCCCCOc2ccc(CCOCCOCCO)cc2)cc1 [E2, 4-[10-(4-{2-[2-(2-Hydroxy-ethoxy)-ethoxy]-ethyl}-phenoxy)-decyloxy]-benzamidine]",reduction of protein adsorption based on amide I band intensity,[2],more than 50%
same,reduction in average projected cell area on MDSA versus MBA-SAMs,[3],28%
same,diffusion coefficient from FRAP,[4],matching literature values of supported lipid bilayers
same,pH resistance of rinsed layers,[5],up to 6
"N=C(N)c1ccc(OCCCCCCCCCCOc2ccc(CCOCCOCCOCCOCCOCCOCCO)cc2)cc1 [E6, 4-{10-[4-(2-{2-[2-(2-{2-[2-(2-Hydroxy-ethoxy)-ethoxy]-ethoxy}-ethoxy)-ethoxy]-ethoxy}-ethyl)-phenoxy]-decyloxy}-benzamidine]",decrease in layer thickness after 2 cycles of rinsing with pH 8 buffer and drying,[6],9 Å
same,protein adsorption / resistance,[2],less resistant
"Cl.N=C(N)c1ccc(OCCCCCCCCCCOc2ccc(CCO)cc2)cc1 [compound 1, Amino(4-(10-(4-(2-hydroxyethyl)phenoxy)decyloxy)phenyl)methaniminium chloride]",protein adsorption / resistance,[2],most pronounced protein adsorption
same,water solubility,[7],poorly water-soluble
same,water solubility,[7]; listed as E0,poorly water soluble
"CC(=O)NC1C(O)CC(OCCc2cn(CCOCCOCCc3ccc(OCCCCCCCCCCOc4ccc(C(=N)N)cc4)cc3)nn2)(C(=O)O)OC1C(O)C(O)CO (stereo not drawn) [compound 2, 5-Acetylamino-2-[2-(1-{2-[2-(2-{4-[10-(4-carbamimidoyl-phenoxy)-decyloxy]-phenyl}-ethoxy)-ethoxy]-ethyl}-1H-[1,2,3]triazol-4-yl)-ethoxy]-4-hydroxy-6-(1,2,3-trihydroxy-propyl)-tetrahydro-pyran-2-carboxylic acid]",water solubility,[7],highly water soluble
"N=C(N)NCCC[C@H](N)C(=O)O [L-Arginine, reference compound]",cell shape after addition,[3]; [11],most of the cells remained the spread-out shape
"C=C(C(=O)CNN[C@@H](CCCNC(=N)N)C(=O)NCC(=O)N[C@@H](CC(=O)O)C(=O)N[C@@H](CO)C(=O)O)c1cn(COCCOCCc2ccc(OCCCCCCCCCCOc3ccc(C(=N)N)cc3)cc2)nn1 [GRGDS 3, (2S,5S,11S)-16-(1-((2-(4-((10-(4-carbamimidoylphenoxy)decyl)oxy)phenethoxy)ethoxy)methyl)-1H-1,2,3-triazol-4-yl)-5-(carboxymethyl)-11-(3-guanidinopropyl)-2-(hydroxymethyl)-4,7,10,15-tetraoxo-3,6,9,12,13-pentaazaheptadec-16-enoic acid]",average projected cell area,"[3]; XGRGDS3,filler2=0.1 on MDSA-SAMs",1183 μm^2
same,average projected cell area,"[3]; XGRGDS3,filler2=0.25 on MDSA-SAMs",1282 μm^2
same,coverage of adhered cells versus amount in layer,"[3]; XGRGDS3=0-0.25, 5 hours",correlated with the increasing amount of GRGDS3
same,average projected cell area versus surface without GRGDS3,"[3]; with filler 1, XGRGDS3=0.25 on MBA SAMs",an increase in average projected cell area
same,average projected cell area versus GRGDS density,[3]; with filler 1 on MDSA SAMs,no distinct differences
same,average projected cell area versus surface without GRGDS3,"[3]; with filler 2, XGRGDS3=0.1 and 0.25 on MDSA SAMs",a decrease in average projected cell area
same,average projected cell area versus GRGDS density,[3]; with filler 2 on MBA SAMs,no distinct differences
"N=C(N)c1ccc(OCCCCCCCCCCOc2ccc(CCOCCOCCOCCOCCO)cc2)cc1 [E4, 4-(10-{4-[2-(2-{2-[2-(2-Hydroxy-ethoxy)-ethoxy]-ethoxy}-ethoxy)-ethyl]-phenoxy}-decyloxy)-benzamidine]",protein adsorption / resistance,[2],less resistant
same,reduction in average projected cell area,"[3]; 100 μM added to cells on XGRGDS3,filler2=0.25 on MBA SAMs, 37° C., 30 minutes",65%
same,cell shape after addition,[3]; [11],dramatic transition from a spread-out cell shape to a non-adhesive round shape
same,surface coverage by adherent cells normalized on average projected cell area,"[3]; XGRGDS3,filler2=0 on MDSA-SAMs",12%
same,average projected cell area,"[3]; XGRGDS3,filler2=0 on MDSA-SAMs",1634 μm^2
same,reduction in average projected cell area on MDSA versus MBA-SAMs,[3],no significant differences
same,cells after replacing medium with fresh medium,"[3]; after 100 μM exposure, fresh medium, 37° C., 24 hrs",retain their adhesive characteristic
same,critical micelle concentration (CMC),[8],approximately 5 μM
mucin,effect of preincubating HA with mucin on HA binding to rSAM-2,[9],effectively suppressed
same,effect of mucin masking on virus adsorption to rSAM-2,[10],effectively suppressed
same,Ki,[1]; read-out: Ki of binding to HA,2 µM
